Measurements: patent publication US12479858B2, “Macrocyclic compounds as sting agonists and methods and uses thereof” (Lupin Limited, priority 2019, dated 2025)
Entries after “also recorded” stand apart in the source; their conditions may differ. Structures can show the parent of a compound that is named as a salt.

Key:
[1] = tested on: CT26 Allograft; assay: Tumor volume in CT26 allograft BALB/c mice model, intravenous administration; format: in vivo; details: for effect on tumor volume / subjects exhibiting complete tumor regression: i.v., indicated dose at days 1, 4, and 8
Description: Effect of Compounds on Tumor Volume in CT26 Allograft BALB/c Mice Model by Intravenous (i.v.) Administration
Healthy, female BALB/c mice in the age group of 5-8 weeks issued from Research Animal Facility (RAF). These mice were housed in individually ventilated cages (IVC) in the experimental animal room and were acclimatized not less than 5 days prior to cell inoculation. All the experimental activities were carried out inside the biosafety cabinet to ensure sterility. Under aseptic conditions, Allograft tumor model was generated by inoculating BALB/c mice with 0.1 million CT26 single cell suspension (colorectal cancer model), using 1 mL disposable syringe fitted with a 26G ½″ sterile needle. Each mouse was inoculated with 100 μL of CT26 cell suspension in phosphate buffered saline (PBS) media, subcutaneously in right flank region. Mice were randomized into different groups, post cell inoculation, with approximately equal mean and equal variation (S.E.M.) of tumor volumes in various treatment groups including vehicle control group.
Tumor size was measured with Vernier caliper when the tumor became palpable. Tumor volume (T. V.) was calculated by using the formula: Tumor volume (mm^3)=(L×W^2)/2 • Where, L—Length of tumor, W—Width of tumor
Mice were selected and randomized, on the basis of tumor volume, into required no. of groups with approximately equal mean and equal variation on day 1 of treatment, post-tumor cell inoculation. All study groups were treated via intravenous route on day 1, 4 and 8 dosing schedule, through lateral tail vein at a dose volume of 5 mL/kg.
Tumor sizes were measured with Vernier caliper twice weekly and body weights of mice were recorded daily.
Percent tumor growth inhibition (% TGI) was calculated using the formula: % TGI=[1−(Tf−Ti)/(Cf−Ci)]×100 Wherein Tf and Ti are the final and initial test tumor volumes, respectively, and Cf and Ci are the final and initial control mean tumor volumes, respectively.
Percent Tumor Regression (% TR) was calculated using the formula: % TR=[(Initial T.V.−Final T.V.)/(Initial T.V.)]×100 Wherein T.V.=Tumor Volume
Body weight change (%) was calculated by using the formula: Body weight change (%)[=(Final B.Wt.)−(Initial B.Wt.)/Initial B.Wt.]×100 Wherein B.Wt.=Body weight

[2] = tested on: CD3^+CD8^+ T cells; assay: Estimation of immune cell infiltration in tumors (flow cytometry); format: in vivo, Balb/c mice; details: for % CD3^+CD8^+ T cells: infiltration in tumor, 96 h post treatment, 0.375 mg/kg single i.v.; for % CD3^+CD8^+ T cells infiltrating the tumor as compared to the vehicle-treated group: single i.v. dose of 0.375 mg/kg, 96 h post treatment initiation
Description: Estimation of immune cell infiltration in tumors: CT-26 tumor-bearing Balb/c mice were treated intravenously with 0.375 mg/kg of test compounds and blood and tumors were processed for analysis of CD8^+, CD3^+ and CD45^+ T cells at 24 h and 96 h after start of treatment. Blood samples were subjected to RBC lysis and the cells were recovered by centrifugation. Following wash with PBS, the cells were blocked using TruStain FcX™ blocking antibody and stained with fluorophore-tagged anti-CD45, anti-CD3 and anti-CD8 antibodies. Tumor samples were minced and subjected to tissue digestion using freshly prepared collagenase-IV solution (1 mg/ml) containing DNase (0.05 mg/ml) for 1-1.5 h at 37° C. and 150-200 rpm. Single cell suspension was prepared by filtering it through a 100 μm mesh and checked for cell viability. Cells were stained with various antibodies as mentioned above. The distinct T cell subsets were analysed on FACS Canto II (BD) and percentage of each population was calculated after initial gating of CD45^+ lymphocyte population.

[3] = tested on: Interferon beta (IFNβ), interleukin-6 (IL-6) and tumor necrosis factor alpha (TNFα); assay: Serum and tumor cytokine levels in CT26 tumor-bearing mice (ELISA); format: in vivo, BALB/c mice
Description: Pharmacokinetic and Pharmacodynamic Profiling and Estimation of Immune Cell Infiltration in Tumors Following Treatment with Compounds 2, 6, 8, 12 and 14
Serum and tumor cytokine levels and corresponding compound concentrations in mouse plasma were determined following single-dose intravenous administration in CT26 (murine colorectal carcinoma) tumor-bearing mice. Briefly, naïve BALB/c mice in the age group of 6-8 weeks were inoculated with 0.1 million CT-26 cells/animal in phosphate buffered saline (PBS), subcutaneously. […] Blood and tumor samples were harvested at various time points up to 24 h post-dose. Tumor samples were homogenized and prepared for cytokine estimation (ELISA) and compound concentration were determined by LC-MS/MS. Serum aliquots and tumor samples were snap-frozen and stored at −80° C. till further analysis. Serum and tumor samples were evaluated for Interferon beta (IFNβ), interleukin-6 (IL-6) and tumor necrosis factor alpha (TNFα) by enzyme linked immunosorbent assay (ELISA) using kits from R & D systems (Quantikine mouse IL-6 and TNFα kits) and PBL biosciences (Verikine mouse IFNβ kit).
Cytokine analysis from mouse serum samples: For IL-6 and TNFα estimation, 50 μL of test samples or internal standard or control were applied to wells in duplicates and incubated for 2 h at room temperature, followed by aspiration and washing four times with 400 μL of wash buffer. 100 μL of mouse IL-6 or TNFα conjugate solution was added and incubated further for 2 h at room temperature and followed later by 4 wash cycles. 100 μL of substrate solution was added to each well with addition of stop solution after 30 min. Optical density was measured at 450 nm averaged and was used for further calculations following subtraction of respective blank controls. Cytokine concentrations were determined by interpolating the optical density of samples into the reference standard curve utilizing four parameter logistic (4-PL) curve-fit. Cytokine concentrations were normalized with their respective dilution factors and represented in pg/mL. For IFNβ estimation, 100 μL test sample or internal standard or controls were applied to the wells in duplicates and incubated for 1 h at room temperature followed by three washes and addition of the anti-mouse IFNβ antibody solution with further 1 h incubation. This was followed by addition of horseradish peroxidase (HRP) solution and three washes, later addition of TMB substrate and reading the optical density at 450 nm. Optical densities were blank-subtracted and interpolated to the reference standard utilizing the four parameter logistic (4-PL) curve-fit. Cytokine concentrations were normalized with their respective dilution factors and represented in pg/mL. Tables 4 and 5 indicate cytokine levels for compounds 2, 6, 8, 12, and 14 in serum and tumor at different administered doses.
Cytokine analysis from tumor samples: Tumor samples were homogenized in a bead-based homogenizer and lysates were prepared with buffer supplemented with 1% Triton X-100 and protease inhibitors. Cytokine levels were estimated by ELISA and expressed as pg/g tumor.

[4] = 0.375 mg/kg single i.v., 3.5 h (Table 6)
[5] = 0.375 mg/kg single i.v., 8 h (Table 6)
[6] = 0.375 mg/kg single i.v., 12 h (Table 6)
[7] = 0.375 mg/kg single i.v., 24 h (Table 6)

CCn1nc(C)cc1C(=O)Nc1nc2cc(C(N)=O)cc3c2n1C/C=C/Cn1c(NC(=O)c2cc(C)nn2CC)nc2cc(C(=O)N[C@H]4CC[C@H](C(=O)O)CC4)cc(c21)OCCCO3 [Compound 2, (1R,4R)-4-((E)-12-carbamoyl-1,15-bis(1-ethyl-3-methyl-1H-pyrazole-5-carboxamido)-8,9,16,19-tetrahydro-7H-6,10-dioxa-2,14,15a,19a-tetraazacyclopentadeca[3,2,1-cd:8,9,10-c′d′]diindene-4-carboxamido)cyclohexane-1-carboxylic acid sodium salt]
effect on body weight ([1]; 3 mpk (mg/kg)): < 10%
effect on tumor volume [1]: reduces tumor volume
subjects exhibiting complete tumor regression [1]: 7 out of 9
effect on tumor volume at high dose ([1]; two different doses, days 1, 4, and 8, n=10 (FIG. 6)): reduces tumor volume
% CD3^+CD8^+ T cells [2]: 11.2 ± 0.2%
% CD3^+CD8^+ T cells infiltrating the tumor as compared to the vehicle-treated group ([2]; sodium salt, 0.375 mg/kg): higher percentage of T cell infiltration over that of vehicle control; also recorded: increase
Serum Cytokines IFNβ ([3]; 0.093 mg/kg single i.v., 3.5 h): 446 pg/mL
Serum Cytokines IL-6 ([3]; 0.093 mg/kg single i.v., 3.5 h): 1323 pg/mL
Serum Cytokines TNFα ([3]; 0.093 mg/kg single i.v., 3.5 h): 261 pg/mL
Tumor Cytokines IFNβ ([3]; 0.093 mg/kg single i.v., 3.5 h): 4000 pg/g
Tumor Cytokines IL-6 ([3]; 0.093 mg/kg single i.v., 3.5 h): 4580 pg/g
Tumor Cytokines TNFα ([3]; 0.093 mg/kg single i.v., 3.5 h): 2460 pg/g
Serum Cytokines IFNβ ([3]; 0.093 mg/kg single i.v., 8 h): 64 pg/mL
Serum Cytokines IL-6 ([3]; 0.093 mg/kg single i.v., 8 h): 662 pg/mL
Serum Cytokines TNFα ([3]; 0.093 mg/kg single i.v., 8 h): 210 pg/mL
Tumor Cytokines IFNβ ([3]; 0.093 mg/kg single i.v., 8 h): 955 pg/g
Tumor Cytokines IL-6 ([3]; 0.093 mg/kg single i.v., 8 h): 1100 pg/g
Tumor Cytokines TNFα ([3]; 0.093 mg/kg single i.v., 8 h): 637 pg/g
Serum Cytokines IFNβ ([3]; 0.187 mg/kg single i.v., 3.5 h): 1920 pg/mL
Serum Cytokines IL-6 ([3]; 0.187 mg/kg single i.v., 3.5 h): 3139 pg/mL
Serum Cytokines TNFα ([3]; 0.187 mg/kg single i.v., 3.5 h): 574 pg/mL
Tumor Cytokines IFNβ ([3]; 0.187 mg/kg single i.v., 3.5 h): 4169 pg/g
Tumor Cytokines IL-6 ([3]; 0.187 mg/kg single i.v., 3.5 h): 4798 pg/g
Tumor Cytokines TNFα ([3]; 0.187 mg/kg single i.v., 3.5 h): 3201 pg/g
Serum Cytokines IFNβ ([3]; 0.187 mg/kg single i.v., 8 h): 127 pg/mL
Serum Cytokines IL-6 ([3]; 0.187 mg/kg single i.v., 8 h): 738 pg/mL
Serum Cytokines TNFα ([3]; 0.187 mg/kg single i.v., 8 h): 136 pg/mL
Tumor Cytokines IFNβ ([3]; 0.187 mg/kg single i.v., 8 h): 962 pg/g
Tumor Cytokines IL-6 ([3]; 0.187 mg/kg single i.v., 8 h): 2244 pg/g
Tumor Cytokines TNFα ([3]; 0.187 mg/kg single i.v., 8 h): 531 pg/g
Serum Cytokines IFNβ ([3]; 0.375 mg/kg single i.v., 3.5 h): 8540 pg/mL
Serum Cytokines IL-6 ([3]; 0.375 mg/kg single i.v., 3.5 h): 6014 pg/mL
Serum Cytokines TNFα ([3]; 0.375 mg/kg single i.v., 3.5 h): 1242 pg/mL
Tumor Cytokines IFNβ ([3]; 0.375 mg/kg single i.v., 3.5 h): 8044 pg/g
Tumor Cytokines IL-6 ([3]; 0.375 mg/kg single i.v., 3.5 h): 8103 pg/g
Tumor Cytokines TNFα ([3]; 0.375 mg/kg single i.v., 3.5 h): 6074 pg/g
Serum Cytokines IFNβ ([3]; 0.375 mg/kg single i.v., 8 h): 263 pg/mL
Serum Cytokines IL-6 ([3]; 0.375 mg/kg single i.v., 8 h): 1201 pg/mL
Serum Cytokines TNFα ([3]; 0.375 mg/kg single i.v., 8 h): 160 pg/mL
Tumor Cytokines IFNβ ([3]; 0.375 mg/kg single i.v., 8 h): 1723 pg/g
Tumor Cytokines IL-6 ([3]; 0.375 mg/kg single i.v., 8 h): 2715 pg/g
Tumor Cytokines TNFα ([3]; 0.375 mg/kg single i.v., 8 h): 617 pg/g
Serum Cytokines IFNβ ([3]; 0.375 mg/kg single i.v., 12 h): 14 pg/mL
Serum Cytokines IL-6 ([3]; 0.375 mg/kg single i.v., 12 h): 372 pg/mL
Serum Cytokines TNFα ([3]; 0.375 mg/kg single i.v., 12 h): 50 pg/mL
Tumor Cytokines IFNβ ([3]; 0.375 mg/kg single i.v., 12 h): 323 pg/g
Tumor Cytokines IL-6 ([3]; 0.375 mg/kg single i.v., 12 h): 2794 pg/g
Tumor Cytokines TNFα ([3]; 0.375 mg/kg single i.v., 12 h): 298 pg/g
cytokine levels over time ([3]; CT26 tumor-bearing mice, single i.v. dose): sustained cytokine levels

CCn1nc(C)cc1C(=O)Nc1nc2cc(C(N)=O)cc3c2n1C/C=C/Cn1c(NC(=O)c2cc(C)nn2CC)nc2cc(C(=O)NCCCn4cc(C(=O)O)cn4)cc(c21)OCCCO3 [Compound 8, (E)-1-(3-(12-carbamoyl-1,15-bis(1-ethyl-3-methyl-1H-pyrazole-5-carboxamido)-8,9,16,19-tetrahydro-7H-6,10-dioxa-2,14,15a,19a-tetraazacyclopentadeca[3,2,1-cd:8,9,10-c′d′]diindene-4-carboxamido)propyl)-1H-pyrazole-4-carboxylic acid sodium salt]
effect on tumor volume [1]: reduces tumor volume
subjects exhibiting complete tumor regression [1]: 5 out of 9
% CD3^+CD8^+ T cells [2]: 15.5 ± 2.2%
% CD3^+CD8^+ T cells infiltrating the tumor as compared to the vehicle-treated group [2]: increase
Serum IFNβ [3, 4]: 20553 ± 3011.24 pg/mL
Tumor IFNβ [3, 4]: 7975 ± 1164.2 pg/g tumor
Serum IFNβ [3, 5]: 307 ± 64.6 pg/mL
Tumor IFNβ [3, 5]: 1182 ± 321.2 pg/g tumor
Serum IFNβ [3, 6]: 43 ± 33.5 pg/mL
Tumor IFNβ [3, 6]: 284 ± 84.2 pg/g tumor
Serum IFNβ [3, 7]: BLQ
Tumor IFNβ [3, 7]: 197 ± 84.7 pg/g tumor
